Patent publication US20240390515A1, “MULTIDOSE OPHTHALMIC COMPOSITIONS” (Oculis Operations Sàrl, priority 2022, published 2024)

Columns and labels:
[1] = cited from earlier work
[2] = test system: Pseudomonas aeruginosa, Staphylococcus aureus, Candida albicans, Aspergillus brasiliensis, Escherichia coli; assay: Antimicrobial Efficacy Test (AET) according to USP-NF monograph <51>; type: cell-based; conditions: dexamethasone eye drops, pH 5.0, USP-NF AET methodology
Protocol: For assessing the antimicrobial preservative agents, an Antimicrobial Efficacy Test (AET) is performed according to both USP-NF and EP standards • USP-NF: “American Pharmacopoeia” monograph <51> • EP: “European Pharmacopoeia” monograph […]
Those AETs consist in challenging the drug formulation containing an antimicrobial preservative agent at a certain concentration with specific microbial strains. The results are provided in microbial reduction expressed in logarithmic units. The acceptance criteria are specific of each standard (either US or EU) according to the table below. For being declared as passing the test, all the criteria must be achieved over the 28 days period. If at least one criterion is missed, then the whole test is declared failed.
AET acceptance criteria (microbial burden reduction in Log units)
Based on current knowledge those three microbial challenge tests (AETs), also known in the past as preservative efficacy tests (PET), are known to be more or less difficult to pass. EP/A test is known to be the most difficult one to pass. EB/B is less difficult than EB/A. USP-NF test is usually less difficult or sometimes equivalent to EP/B.

SMILES | Water solubility (at 20° C.) [1] | Temperature Stability ([1]; in words) | minimum effective dose of potassium sorbate used as an antimicrobial agent [2] [% w/v] | solubility in water ([1]; in words) | Log P(octanol/water) ([1]; octanol/water)
CCCCOC(=O)c1ccc(O)cc1 [BPB, butyl paraben] | Low (0.25%) | Yes |  |  | 
C/C=C/C=C/C(=O)[O-].[K+] [KS, Potassium sorbate] | Good (>50%) | Medium | 0.235 |  | 
C/C=C/C=C/C(=O)O [SA, (2E,4E)-hexa-2,4-dienoic acid] | Low (0.15%) | Low |  | slightly soluble in water | 1.3
